Series [1] concerns the target T1, LXRβ (Homo sapiens, UniProt P55055).
T1 sequence (P55055 1-460): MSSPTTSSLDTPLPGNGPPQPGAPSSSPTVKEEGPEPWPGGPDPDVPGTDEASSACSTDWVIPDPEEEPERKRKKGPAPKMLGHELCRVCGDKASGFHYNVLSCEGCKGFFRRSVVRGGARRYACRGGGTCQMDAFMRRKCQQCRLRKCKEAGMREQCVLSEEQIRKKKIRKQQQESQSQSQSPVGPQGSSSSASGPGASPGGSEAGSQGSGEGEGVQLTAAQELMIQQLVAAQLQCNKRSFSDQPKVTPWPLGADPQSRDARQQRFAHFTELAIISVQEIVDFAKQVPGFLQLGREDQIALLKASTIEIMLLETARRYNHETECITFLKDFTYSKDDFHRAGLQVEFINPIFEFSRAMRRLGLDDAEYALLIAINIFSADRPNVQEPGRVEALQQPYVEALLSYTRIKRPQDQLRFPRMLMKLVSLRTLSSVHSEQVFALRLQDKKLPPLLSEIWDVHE
Kind of series: LXR Gal4 reporter transient transfection assay (mammalian two-hybrid, HEK293), LXRβ. Format: cell-based. Also noted: LXRβ (amino acids 156-461); expressed in transfected cells; host or cells: HEK293. Particulars: full length (FL) LXRβ, HEK293; read-out: FL-M2H Gal4β. In outline:
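Mammalian two-hybrid read-out of LXR–coactivator (SRC1) or corepressor (NCoR) interaction: firefly luciferase under GAL4 response elements, normalised via Renilla co-transfection. LXRα/β full-length or LBD fusions expressed transiently in HEK293; compounds (final DMSO ≤0.2%) given 4 h after transfection for 16 h before lysis.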

Series [2] has as its target T2, LXRβ (Homo sapiens, UniProt P55055).
T2 construct: LXRβ (amino acids 156-461); expressed in transfected cells; host or cells: HEK293
T2 sequence (P55055 156-460): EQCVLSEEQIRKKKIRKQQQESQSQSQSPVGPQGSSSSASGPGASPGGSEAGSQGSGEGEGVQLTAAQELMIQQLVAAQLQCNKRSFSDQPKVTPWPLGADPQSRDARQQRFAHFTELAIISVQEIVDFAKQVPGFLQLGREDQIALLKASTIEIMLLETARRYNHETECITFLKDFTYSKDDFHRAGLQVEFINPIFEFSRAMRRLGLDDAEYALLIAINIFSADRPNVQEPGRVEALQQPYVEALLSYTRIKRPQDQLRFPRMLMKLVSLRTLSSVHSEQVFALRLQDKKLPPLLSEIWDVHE
The series is described as above. Format: cell-based. The following applies: ligand-binding domain (LBD) of LXRβ, HEK293; read-out: LBD-M2H Gal4β. Here is the method:
LXRα and LXRβ activity status was determined via detection of interaction with coactivator and corepressor proteins in mammalian two-hybrid experiments (M2H). For this, via transient transfection the full length (FL) proteins of LXRα (amino acids 1-447; NP005684; SEQ ID NO:1) or LXRβ-(amino acids 1-461; NP009052; SEQ ID NO:2) or the ligand-binding domains (LBD) of LXRα (amino acids 155-447 SEQ ID NO:3) or LXRβ (amino acids 156-461; SEQ ID NO:4) were expressed from pCMV-AD (Stratagene) as fusions to the transcriptional activation domain of NFkB. As cofactors, domains of either the steroid receptor coactivator 1 (SRC1; amino acids 552-887; SEQ ID NO:5) or of the corepressor NCoR (amino acids 1906-2312; NP006302; SEQ ID NO:6) were expressed as fusions to the DNA binding domain of the yeast transcription factor GAL4 (from pCMV-BD; Stratagene). Interaction was monitored via activation of a coexpressed Firefly Luciferase Reporter gene under control of a promoter containing repetitive GAL4 response elements (vector pFRLuc; Stratagene). Transfection efficiency was controlled via cotransfection of constitutively active pRL-CMV Renilla reniformis luciferase reporter (Promega). HEK293 cells were grown in minimum essential medium (MEM) with 2 mM L-glutamine and Earle's balanced salt solution supplemented with 8.3% fetal bovine serum, 0.1 mM non-essential amino acids, 1 mM sodium pyruvate, at 37° C. in 5% CO2. 3.5×10^4 cells/well were plated in 96-well cell culture plates in growth medium supplemented with 8.3% fetal bovine serum for 16-20 h to ˜90% confluency. For transfection, medium was taken off and LXR and cofactor expressing plasmids as well as the reporter plasmids are added in 30 μL OPTIMEM/well including polyethylene-imine (PEI) as vehicle. Typical amounts of plasmids transfected/well: pCMV-AD-LXR (5 ng), pCMV-BD-cofactor (5 ng), pFR-Luc (100 ng), pRL-CMV (0.5 ng). Compound stocks were prepared in DMSO, prediluted in MEM to a total volume of 120 μL, and added 4 h after addition of the transfection mixture (final vehicle concentration not exceeding 0.2%). Cells were incubated for additional 16 h, lysed for 10 min in 1×Passive Lysis Buffer (Promega) and Firefly and Renilla luciferase activities were measured sequentially in the same cell extract using buffers containing D-luciferine and coelenterazine, respectively. Measurements of luminescence were done in a BMG-luminometer.
The potencies of Compound 21/3 and its analog, Compound pre-6/3, against LXRα and LXRβ were evaluated in biochemical binding assays, cellular mammalian two-hybrid (M2H) interaction assays evaluating nuclear receptor co-repressor (NCOR) recruitment, and cellular reporter assays evaluating transcriptional activity (Table 5).

A short description of series [3]: Pharmacokinetics in mice after single oral dosing (blood/plasma and liver exposure). Format: in vivo. Particulars: for blood/plasma exposure / liver exposure / liver/blood ratio / blood/plasma exposure (below LLOQ) / liver exposure (below LLOQ): 20 mg/kg single oral dose, time point 4 h; for blood/plasma exposure (below LLOQ) / liver exposure (below LLOQ): number is the LLOQ; for oral bioavailability: single oral dose. Here is the method: The pharmacokinetics of the compounds was assessed in mice after single dosing and oral administrations. Blood/plasma and liver exposure was measured via LC-MS.
The study design was as follows: • Animals: C57/bl6/J (Janvier) males • Diet: standard rodent chow • Dose: 20 mg/kg • Animal handling: animals were withdrawn from food at least 12 h before administration • Design: single dose oral administration, n=3 animals per group • Sacrifice: at stated time point (4, 12 or 24 h) after administration • Bioanalytics: LC-MS of liver and blood/plasma samples

The target of series [4] is T3, GST-LXRβ ligand-binding domain (Homo sapiens, UniProt P55055).
T3 construct: amino acids 156-461; NP009052; made in house; host or cells: E. coli
T3 sequence (P55055 156-460 limits assumed): T2 sequence (P55055 156-460)
Kind of series: TR-FRETβ activity assay (NCoA3 coactivator peptide recruitment). Format: biochemical. The following applies: 1 μM 24(S)-25-epoxycholesterol prestimulation. In outline:
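Inverse-agonist format, with LXR prestimulated by 1 μM 24(S)-25-epoxycholesterol in pH 6.8 Tris/HCl, 240 mM KCl, BSA and Triton. Ten concentrations from 50 μM to 0.002 μM were equilibrated 1 h at 4° C with 76 nM GST-LXRβ LBD and 400 nM biotin-NCoA3 peptide. Peptide recruitment detected by 665/615 nm TR-FRET.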

SMILES strings stand for the structures. Where two headings read alike, the source gives them in different places. Some results are limits rather than exact numbers.

For `N#Cc1sccc1-c1c(-c2cccc(C3CC3C(=O)O)c2)n(S(=O)(=O)c2ccc(Cl)cc2)c2ccc(F)cc12` (stereo not shown) [3/24], the EC50 at LXRβ [1] is less than 100 nM. For the same compound, the EC50 at LXRβ [2] was less than 100 nM. For the same compound, in series [3], the blood/plasma exposure entry is listed as “D (<100 nM)”, the liver exposure entry is listed as “C (1 μM to ≤3 μM)” and the liver/blood ratio result is “D (>30)”.
`Cc1ccc(S(=O)(=O)n2c(-c3cccc(N4CC(C(=O)O)C4)c3)c(-c3ccsc3C#N)c3cc(F)c(F)cc32)cc1` [3/42]: the EC50 on LXRβ [1] was less than 100 nM; on LXRβ [2], less than 100 nM; in series [4], 1000 to 10000 nM.
On to `Cc1ccc(S(=O)(=O)n2c(-c3cccc(N4CC(C(=O)O)C4)c3)c(-c3ccsc3C#N)c3cc(F)c(Cl)cc32)cc1` [3/43], for which the results for the EC50 (on LXRβ [1]; on LXRβ [2]; in series [4]) were less than 100 nM, 100 to 1000 nM and 1000 to 10000 nM, respectively.
The like results for `Cc1ccc(S(=O)(=O)n2c(-c3cccc(N4CC(C(=O)O)C4)c3)c(-c3ccsc3C#N)c3cc(Cl)ccc32)cc1` [3/44] were, in that order, less than 100 nM, less than 100 nM and 1000 to 10000 nM.
For `Cc1ccc(S(=O)(=O)n2c(-c3cccc(N4CC(C(=O)O)C4)c3)c(-c3ccsc3C#N)c3cc(C)ccc32)cc1` [3/46], the EC50 is less than 100 nM at LXRβ [1], less than 100 nM at LXRβ [2] and 100 to 1000 nM in series [4].
In the case of `N#Cc1sccc1-c1c(-c2cccc(N3CC(C(=O)O)C3)c2)n(S(=O)(=O)c2ccc(Cl)cc2)c2ccccc12` [30/7], on LXRβ [2], the EC50 is less than 100 nM. Further, in series [3], the blood/plasma exposure result was “D (<100 nM)”, the liver exposure result is “B (300 nM to ≤1 μM)” and the liver/blood ratio result is “D (>30)”. The EC50 in series [4] lay within 100 to 1000 nM.
For `N#Cc1sccc1-c1c(-c2cccc(N3CCC(C(=O)O)C3)c2)n(S(=O)(=O)c2ccc(Cl)cc2)c2ccccc12` (stereo not shown) [30/11], the results for the EC50 (at LXRβ [2]; in series [4]) were less than 100 nM and 100 to 1000 nM, respectively.
For the compound `N#Cc1sccc1-c1c(-c2cccc(C3CC3C(=O)O)c2)n(S(=O)(=O)C2CC2)c2ccccc12` (stereo not shown) [30/12], the values for the EC50 (on LXRβ [2]; in series [4]) were 100 to 1000 nM and 1000 to 10000 nM, respectively.
As for `Cc1ccc(S(=O)(=O)n2c(-c3cccc(C4CC4C(=O)O)c3)c(-c3ccsc3F)c3ccccc32)cc1` (stereo not shown) [30/14], the EC50 on LXRβ [2] lay in the range of 100 to 1000 nM; in series [4] it was 1000 to 10000 nM.
As to `Cc1ccc(S(=O)(=O)n2c(-c3cccc(C4CC4C(=O)O)c3)c(-c3ccc(F)cc3C#N)c3ccccc32)cc1` (stereo not shown) [30/15], the results for the EC50 (at LXRβ [2]; in series [4]) were 100 to 1000 nM and 1000 to 10000 nM, respectively.
The like results for `CS(=O)(=O)NC(=O)C1CC1c1cccc(-c2c(-c3ccsc3C#N)c3ccccc3n2S(=O)(=O)c2ccc(Cl)cc2)c1` (stereo not shown) [32/1] were, in that order, less than 100 nM and 100 to 1000 nM.
The like results for `N#Cc1sccc1-c1c(-c2cccs2)n(S(=O)(=O)c2ccc(Cl)cc2)c2cc(CCC(=O)O)c(O)cc12` [Compound 17] were, in that order, 1000 to 10000 nM and more than 10000 nM.
The like results for `O=C(O)c1sccc1-c1c(-c2cccs2)n(S(=O)(=O)c2ccc(Cl)cc2)c2ccccc12` [Compound 21] were, in that order, 1000 to 10000 nM and more than 10000 nM.
For the compound `NC(=O)c1sccc1-c1c(-c2cccs2)n(S(=O)(=O)c2ccc(Cl)cc2)c2ccccc12` [Compound 22], the EC50 at LXRβ [2] is 100 to 1000 nM; in series [4], 1000 to 10000 nM.
With `N#Cc1sccc1-c1c(-c2cccs2)n(S(=O)(=O)C2CCCCC2)c2ccccc12` [Compound 24], the EC50 on LXRβ [2] was less than 100 nM; in series [4], 1000 to 10000 nM.
As to `N#Cc1sccc1-c1c(-c2ccccc2)n(S(=O)(=O)c2ccc(Cl)cc2)c2ccccc12` [Compound 26], the EC50 was less than 100 nM at LXRβ [2] and 100 to 1000 nM in series [4].
Regarding `N#Cc1sccc1-c1c(-c2ccccc2)n(S(=O)(=O)c2ccc(OCC(=O)O)cc2)c2ccccc12` [Compound 27], the EC50 lay in the range of 100 to 1000 nM at LXRβ [2] and 1000 to 10000 nM in series [4].
In the same order, the values of `N#Cc1sccc1-c1c(-c2cccc(OCCC(=O)O)n2)n(S(=O)(=O)c2ccc(Cl)cc2)c2ccccc12` [Compound 31] are 100 to 1000 nM and 1000 to 10000 nM.
In the case of `Cc1cc(C)c(S(=O)(=O)N(Cc2ccc(-c3cccc(S(C)(=O)=O)c3)cc2)Cc2ccc(C(F)(F)F)o2)c(C)c1` [GSK2033, reference compound], in series [3], the “blood/plasma exposure (below LLOQ)” value is on record as “(14.4 ng/mL)”, the “liver exposure (below LLOQ)” value is given as “(9.6 ng/mL)” and the oral bioavailability result was “not orally bioavailable”.
The like results for `CCOC(=O)c1ccc(CN(Cc2ccc(-c3cccc(S(C)(=O)=O)c3)cc2)S(=O)(=O)c2c(C)cc(C)cc2C)o1` [SR9238, reference compound] were, in that order, “below LLOQ”, “below LLOQ” and “not orally bioavailable”.

These data come from patent US20260083704A1, “LXR MODULATORS WITH BICYCLIC CORE MOIETY FOR TREATING DYSLIPIDEMIAS” (OrsoBio, Inc., priority 2022, published 2026).
